# From ChEMBL document CHEMBL1201862, “PubChem BioAssay data set” (2004)
# Active and inactive are the calls of the source.
# Columns and labels:
# [1] = tested on: HEK293; assay: Fluorescence-based counterscreen for potentiators or agonists of NPY-Y2: cell-based high-throughput dose response assay to identify inhibitors of cyclic nucleotide gated ion channel (CNGC) activity. In this assay, the parental HEK293 cell line transfected with a cyclic-nucleotide gated ion channel (CNGC)-based cAMP sensor is used to measure inhibition of isoproterenol-induced CNGC activity by test compound.; assay type: functional; conditions: Homo sapiens
# [2] = tested on: Streptococcus sp. 'group A'; assay: Streptococcus pyogenes SK(-)GAS viability under kanamycin – luminescence, BacTiterGlo, confirmation, counter-screen for streptokinase expression inhibitor project, dose response (AID 1900); assay type: functional, organism-based
# [3] = cells; assay type: functional, cell-based
# [4] = target: T1, Neuropeptide Y receptor type 2 (Homo sapiens, UniProt P49146); assay: Fluorescence-based cell-based high-throughput dose response assay for agonists of NPY-Y2. [Related pubchem assays: 1703 (Screening assay (CNGC inhibitors).), 1359 (Screening assay (NPY-Y2 potentiators or agonists).), 1304 (Screening assay (NPY-Y1 potentiators or agonists).), 1710 (Screening assay (NPY-Y2 agonists).), 1791 (Summary AID.)]; assay type: functional
# T1 sequence (P49146 whole entry): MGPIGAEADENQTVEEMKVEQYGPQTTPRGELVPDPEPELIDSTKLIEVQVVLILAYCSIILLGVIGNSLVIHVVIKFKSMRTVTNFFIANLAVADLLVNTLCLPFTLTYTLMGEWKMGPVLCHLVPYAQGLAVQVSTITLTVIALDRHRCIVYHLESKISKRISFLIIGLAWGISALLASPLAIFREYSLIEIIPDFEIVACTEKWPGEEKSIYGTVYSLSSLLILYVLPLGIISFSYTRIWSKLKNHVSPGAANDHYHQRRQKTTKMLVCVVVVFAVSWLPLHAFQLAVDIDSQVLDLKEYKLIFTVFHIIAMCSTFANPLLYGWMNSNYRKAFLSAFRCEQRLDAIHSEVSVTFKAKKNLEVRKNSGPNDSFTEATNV
# [5] = target: T2, Streptokinase A (Streptococcus pyogenes serotype M1, UniProt P10520); assay: viability-normalized secreted streptokinase activity reduction – plasminogen activation absorbance, OD405, dose response (AID 1914); assay type: functional, Streptococcus pyogenes M1 GAS;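 further: secreted streptokinase activity via plasminogen activation per viability signal from cell pellet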
# T2 sequence (P10520 whole entry): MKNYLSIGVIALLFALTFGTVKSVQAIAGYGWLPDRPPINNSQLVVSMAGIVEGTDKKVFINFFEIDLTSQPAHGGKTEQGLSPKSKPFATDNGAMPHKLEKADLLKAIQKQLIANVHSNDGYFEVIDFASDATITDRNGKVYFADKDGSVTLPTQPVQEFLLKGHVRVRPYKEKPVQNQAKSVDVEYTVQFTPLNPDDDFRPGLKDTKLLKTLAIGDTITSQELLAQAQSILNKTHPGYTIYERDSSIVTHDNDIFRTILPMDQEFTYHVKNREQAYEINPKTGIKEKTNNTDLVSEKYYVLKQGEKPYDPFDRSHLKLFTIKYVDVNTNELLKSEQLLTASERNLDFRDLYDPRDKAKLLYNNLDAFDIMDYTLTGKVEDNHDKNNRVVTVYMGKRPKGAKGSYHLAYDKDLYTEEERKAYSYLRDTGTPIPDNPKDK
# [6] = cells; assay type: functional, cell-based; remark: listed apart in the source
# [7] = target: T3, Neuropeptide Y receptor type 1 (Homo sapiens, UniProt P25929); assay: Fluorescence-based counterscreen for agonists of NPY-Y2: cell-based high-throughput dose response assay for agonists of NPY-Y1.; assay type: functional
# T3 sequence (P25929 whole entry): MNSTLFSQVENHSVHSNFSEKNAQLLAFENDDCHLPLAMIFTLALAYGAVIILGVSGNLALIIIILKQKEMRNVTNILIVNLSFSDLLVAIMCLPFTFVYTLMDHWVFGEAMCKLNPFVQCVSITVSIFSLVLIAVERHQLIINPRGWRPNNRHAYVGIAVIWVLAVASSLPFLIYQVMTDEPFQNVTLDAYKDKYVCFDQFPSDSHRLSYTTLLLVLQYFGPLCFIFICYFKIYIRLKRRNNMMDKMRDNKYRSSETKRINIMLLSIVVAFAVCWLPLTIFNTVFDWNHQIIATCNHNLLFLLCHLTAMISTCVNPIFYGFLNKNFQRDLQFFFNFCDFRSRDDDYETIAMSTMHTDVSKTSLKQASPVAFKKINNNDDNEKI
# [8] = tested on: Streptococcus; assay: GAS UMAA2166 growth inhibition – luminescence, BacTiterGlo, counter-screen for streptokinase expression inhibitor project, dose response (AID 1915); assay type: functional, organism-based;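 further: potency for reduction of bacterial viability or growth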
# [9] = tested on: BJ; assay: growth inhibition of engineered Ras-driven BJ cells – cell-based, alamar blue fluorescence, cherrypicked samples, dose response (AID 2631); assay type: functional; conditions: Homo sapiens;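 further: confirmatory dose-response assay in RAS-dependent BJ fibroblasts engineered with TERT, LT and ST, with cytotoxicity read by fluorescence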
# [10] = tested on: INS1; assay: INS-1E survival protection against cytokine death – cell-based, luminescence, retest, dose response (AID 449756); assay type: functional; conditions: Rattus norvegicus;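 further: cell death triggered by IL-1 beta plus TNF-alpha plus IFN-gamma mixture; protective hits raise ATP signal compared with cytokine alone wells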
# [11] = target: T4, DNA repair protein RAD52 homolog (Homo sapiens, UniProt P43351); assay type: functional, biochemical
# T4 sequence (P43351 whole entry): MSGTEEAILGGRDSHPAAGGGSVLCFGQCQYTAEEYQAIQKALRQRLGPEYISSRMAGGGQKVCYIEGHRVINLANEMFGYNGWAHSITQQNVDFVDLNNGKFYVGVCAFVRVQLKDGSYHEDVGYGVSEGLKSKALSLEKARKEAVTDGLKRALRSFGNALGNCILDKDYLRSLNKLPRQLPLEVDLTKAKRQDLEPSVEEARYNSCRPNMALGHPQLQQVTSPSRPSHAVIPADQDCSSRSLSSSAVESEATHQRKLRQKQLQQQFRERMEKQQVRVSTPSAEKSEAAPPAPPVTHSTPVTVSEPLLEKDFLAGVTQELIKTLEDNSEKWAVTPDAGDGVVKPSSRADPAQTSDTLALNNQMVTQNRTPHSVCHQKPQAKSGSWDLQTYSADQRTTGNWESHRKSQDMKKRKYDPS
# [12] = target: T1, Neuropeptide Y receptor type 2; assay: Fluorescence-based counterscreen for agonists of NPY-Y1: cell-based high-throughput dose response assay for agonists of NPY-Y2.; assay type: functional
# [13] = tested on: HEK293; assay: Fluorescence-based counterscreen for potentiators or agonists of NPY-Y1: cell-based high-throughput dose response assay for inhibitors of cyclic nucleotide gated ion channel (CNGC) activity. In this assay, the parental HEK293 cell line transfected with a cyclic-nucleotide gated ion channel (CNGC)-based cAMP sensor is used to measure inhibition of isoproterenol-induced CNGC …; assay type: functional; conditions: Homo sapiens
# [14] = target: T3, Neuropeptide Y receptor type 1; assay: Fluorescence-based dose response cell-based high-throughput screening assay for agonists of NPY-Y1. [Related pubchem assays: 1697 (Screening assay (NPY-Y1 agonists).), 1359 (Screening assay (NPY-Y2 potentiators or agonists).), 1304 (Screening assay (NPY-Y1 potentiators or agonists).), 1704 (Screening assay (CNGC inhibitors).), 1791 (Summary AID.)]; assay type: functional
# [15] = target: Transitional endoplasmic reticulum ATPase (Homo sapiens, UniProt P55072, C522A); assay: C522A mutant p97 ATPase inhibitors, dose response, counter-screen for p97 inhibitor project, biochemical, luminescence (AID 1544)
# Chain of Transitional endoplasmic reticulum ATPase (Homo sapiens, UniProt P55072, C522A) (P55072 2-806 C522A limits assumed): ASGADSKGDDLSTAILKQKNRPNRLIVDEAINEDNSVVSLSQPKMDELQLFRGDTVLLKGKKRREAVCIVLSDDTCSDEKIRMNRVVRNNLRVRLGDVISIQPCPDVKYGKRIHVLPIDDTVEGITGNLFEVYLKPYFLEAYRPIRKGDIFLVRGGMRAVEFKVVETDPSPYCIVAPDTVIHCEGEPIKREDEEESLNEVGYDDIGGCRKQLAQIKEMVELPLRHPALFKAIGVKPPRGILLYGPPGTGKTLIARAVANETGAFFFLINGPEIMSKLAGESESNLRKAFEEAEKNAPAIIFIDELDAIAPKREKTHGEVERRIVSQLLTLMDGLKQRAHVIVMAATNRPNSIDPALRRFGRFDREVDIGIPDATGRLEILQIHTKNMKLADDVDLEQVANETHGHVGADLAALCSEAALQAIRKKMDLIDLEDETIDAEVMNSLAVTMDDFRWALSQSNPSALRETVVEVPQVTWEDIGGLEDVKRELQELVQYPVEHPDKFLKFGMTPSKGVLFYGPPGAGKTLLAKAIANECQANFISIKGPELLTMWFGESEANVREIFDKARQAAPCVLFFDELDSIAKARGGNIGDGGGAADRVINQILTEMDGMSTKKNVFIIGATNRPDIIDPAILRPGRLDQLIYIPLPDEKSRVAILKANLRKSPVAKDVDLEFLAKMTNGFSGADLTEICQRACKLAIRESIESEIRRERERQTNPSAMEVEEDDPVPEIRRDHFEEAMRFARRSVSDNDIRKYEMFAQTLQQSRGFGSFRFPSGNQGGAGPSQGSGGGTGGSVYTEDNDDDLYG
# [16] = Trypanosoma cruzi growth suppression in host cells – NIH3T3 host cells, beta-gal luminescence, confirmation (AID 2044); assay type: functional, cell-based;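 further: intracellular parasites grown in NIH/3T3 mouse fibroblasts as host cells; luminescent beta-galactosidase reporter signal from transgenic T. cruzi replicating inside host cells; inhibitors lower the luminescence signal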
# [17] = NIH3T3 cell viability loss – ATP luminescence, mouse fibroblasts, counter-screen, dose response (AID 2010); assay type: functional, cell-based;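 further: cells exposed to compound for about 90 hours before reading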
# [18] = target: Transitional endoplasmic reticulum ATPase (Homo sapiens, UniProt P55072); assay: p97 ATPase inhibitors, dose response, biochemical (AID 1534)
# [19] = cells; assay type: functional
# [20] = target: Heat shock protein HSP 90-alpha (Homo sapiens, UniProt P07900); assay type: functional, organism-based
# [21] = target: Mitochondrial peptide methionine sulfoxide reductase (Bos taurus, UniProt P54149); assay: Absorbance-based biochemical high throughput dose response assay for activators of Methionine sulfoxide reductase A (MsrA).; assay type: functional
# Chain of Mitochondrial peptide methionine sulfoxide reductase (P54149 whole entry): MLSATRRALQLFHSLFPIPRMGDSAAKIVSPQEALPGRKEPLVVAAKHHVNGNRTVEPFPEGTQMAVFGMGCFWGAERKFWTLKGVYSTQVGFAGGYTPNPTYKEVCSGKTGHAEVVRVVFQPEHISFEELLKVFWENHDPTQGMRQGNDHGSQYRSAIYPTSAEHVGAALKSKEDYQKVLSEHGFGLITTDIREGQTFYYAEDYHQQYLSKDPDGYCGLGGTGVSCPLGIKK
# [22] = target: Acyl-homoserine lactone acylase PvdQ (Pseudomonas aeruginosa (strain LESB58), UniProt Q9I194); assay: PvdQ acylase enzyme activity blockers – biochemical, fluorescence, plate reader and imaging, cherry-picks, dose response (AID 493231)
# Chain of Acyl-homoserine lactone acylase PvdQ (Q9I194 24-193 limits assumed): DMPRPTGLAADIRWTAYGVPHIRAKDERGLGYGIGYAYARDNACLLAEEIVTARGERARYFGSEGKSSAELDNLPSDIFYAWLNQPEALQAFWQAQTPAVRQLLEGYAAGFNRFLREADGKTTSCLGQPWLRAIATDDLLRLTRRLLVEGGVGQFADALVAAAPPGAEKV
# Chain of Acyl-homoserine lactone acylase PvdQ (Q9I194 217-762 limits assumed): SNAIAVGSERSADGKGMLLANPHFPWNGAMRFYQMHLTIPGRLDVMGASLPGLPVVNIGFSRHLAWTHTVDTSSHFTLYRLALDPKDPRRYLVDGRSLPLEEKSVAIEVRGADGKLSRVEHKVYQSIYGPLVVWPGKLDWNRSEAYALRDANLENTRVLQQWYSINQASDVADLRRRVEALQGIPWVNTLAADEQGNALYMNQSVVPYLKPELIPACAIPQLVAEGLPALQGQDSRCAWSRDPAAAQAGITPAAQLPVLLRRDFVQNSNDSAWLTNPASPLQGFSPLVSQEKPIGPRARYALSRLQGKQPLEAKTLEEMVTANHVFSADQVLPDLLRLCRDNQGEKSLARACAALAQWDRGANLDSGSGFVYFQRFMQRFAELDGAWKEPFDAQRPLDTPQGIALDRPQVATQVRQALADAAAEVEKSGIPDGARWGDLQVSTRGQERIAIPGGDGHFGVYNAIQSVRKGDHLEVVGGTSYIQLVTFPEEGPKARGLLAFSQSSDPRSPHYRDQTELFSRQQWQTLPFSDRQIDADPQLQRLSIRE
# [23] = target: T5, Alkaline phosphatase, tissue-nonspecific isozyme (Homo sapiens, UniProt P05186)
# T5 sequence (P05186 whole entry): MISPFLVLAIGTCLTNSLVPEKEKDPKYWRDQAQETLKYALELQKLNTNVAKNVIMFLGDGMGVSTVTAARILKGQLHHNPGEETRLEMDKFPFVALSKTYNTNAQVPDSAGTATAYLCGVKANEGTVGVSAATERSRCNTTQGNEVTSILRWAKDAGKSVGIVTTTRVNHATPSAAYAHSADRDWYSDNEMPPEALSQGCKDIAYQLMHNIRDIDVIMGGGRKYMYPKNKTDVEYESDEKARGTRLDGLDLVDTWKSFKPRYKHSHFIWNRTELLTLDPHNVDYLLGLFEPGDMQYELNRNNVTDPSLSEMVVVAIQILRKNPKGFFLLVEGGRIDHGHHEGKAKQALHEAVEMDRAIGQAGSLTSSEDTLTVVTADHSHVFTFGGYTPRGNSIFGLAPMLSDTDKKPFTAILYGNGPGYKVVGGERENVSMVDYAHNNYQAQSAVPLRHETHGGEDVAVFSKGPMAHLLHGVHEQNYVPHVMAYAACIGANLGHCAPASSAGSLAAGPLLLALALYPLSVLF
# [24] = tested on: HEK293; assay: PMA/Ionomycin induced NF-kB luciferase assay in 293- NF-kB-Luc stable cells. [Related pubchem assays: 1299, 1270, 1295, 1375, 1287, 1281, 1293, 1291, 1289, 1280, 465, 1364, 1282, 1372, 1365, 1370, 1367, 1366, 1269, 1373, 1292, 1290, 1302, 1371, 1283, 1271, 1294, 1374, 1368, 1369 ]; assay type: functional, cell-based; conditions: Homo sapiens
# [25] = target: Luciferin 4-monooxygenase (Photinus pyralis, UniProt P08659); assay: In vitro luciferase assay using purified luciferase. [Related pubchem assays: 1299, 1270, 1295, 1375, 1287, 1281, 1293, 1291, 1289, 1280, 465, 1364, 1282, 1372, 1365, 1370, 1367, 1366, 1266, 1373, 1292, 1290, 1302, 1371, 1283, 1271, 1294, 1374, 1368, 1369 ]
# Chain of Luciferin 4-monooxygenase (P08659 whole entry): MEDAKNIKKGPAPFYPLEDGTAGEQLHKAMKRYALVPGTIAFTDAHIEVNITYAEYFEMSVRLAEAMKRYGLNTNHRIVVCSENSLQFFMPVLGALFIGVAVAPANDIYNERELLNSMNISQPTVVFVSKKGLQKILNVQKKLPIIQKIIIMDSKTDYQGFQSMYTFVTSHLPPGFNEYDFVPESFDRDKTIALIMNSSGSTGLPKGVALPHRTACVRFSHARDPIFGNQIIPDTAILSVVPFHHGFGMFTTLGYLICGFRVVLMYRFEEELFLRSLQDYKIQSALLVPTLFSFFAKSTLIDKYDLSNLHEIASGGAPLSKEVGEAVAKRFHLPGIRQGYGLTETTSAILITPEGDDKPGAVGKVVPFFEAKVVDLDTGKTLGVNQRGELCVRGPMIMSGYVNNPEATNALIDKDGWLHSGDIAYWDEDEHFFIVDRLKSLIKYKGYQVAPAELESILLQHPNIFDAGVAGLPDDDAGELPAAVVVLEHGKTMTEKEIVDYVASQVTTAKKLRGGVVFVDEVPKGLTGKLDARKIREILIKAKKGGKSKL
# [26] = tested on: HEK293; assay: Cytotoxicity assay in HEK293 cells. [Related pubchem assays (depositor defined):AID1266, AID1269, AID1270, AID1271, AID1280, AID1281, AID1282, AID1283, AID1287, AID1289, AID1290, AID1291, AID1292, AID1293, AID1294, AID1295, AID1299, AID1302, AID1364, AID1365, AID1366, AID1367, AID1369, AID1370, AID1371, AID1372, AID1373, AID1374, AID1375, AID1384 …; assay type: functional, cell-based; conditions: Homo sapiens
# [27] = tested on: HEK293; assay: TNF Induced NF-kB Luciferase in 293-NF-kB-Luc Stable Cells. [Related pubchem assays: 1266, 1299, 1269, 1373, 1292, 1290, 1302, 1371, 1283, 1270, 1295, 1271, 1375, 1294, 1374, 1281, 1293, 1291, 1289, 1280, 465, 1368, 1364, 1282, 1372, 1365, 1369, 1370, 1367, 1366 ]; assay type: functional, cell-based; conditions: Homo sapiens
# [28] = target: Photoreceptor-specific nuclear receptor (Homo sapiens, UniProt Q9Y5X4); assay type: functional, cell-based;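 further: CHO-S cells with Gal4-NCOR and VP16-NR2E3 two-hybrid luciferase reporter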
# Chain of Photoreceptor-specific nuclear receptor (Q9Y5X4 whole entry, the tested form may be a part): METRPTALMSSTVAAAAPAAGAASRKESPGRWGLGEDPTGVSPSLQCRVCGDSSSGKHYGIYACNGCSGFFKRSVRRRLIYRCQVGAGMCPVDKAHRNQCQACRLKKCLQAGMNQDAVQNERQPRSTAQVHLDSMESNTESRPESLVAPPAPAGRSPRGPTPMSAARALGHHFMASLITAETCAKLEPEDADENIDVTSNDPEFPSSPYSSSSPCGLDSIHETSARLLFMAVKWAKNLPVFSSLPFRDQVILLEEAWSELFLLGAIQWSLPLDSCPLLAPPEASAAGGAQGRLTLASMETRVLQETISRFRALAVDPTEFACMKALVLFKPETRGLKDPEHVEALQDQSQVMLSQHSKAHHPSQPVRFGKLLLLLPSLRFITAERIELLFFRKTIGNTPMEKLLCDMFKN
# [29] = A549 cell cytotoxicity, dose response, cytotoxicity control, plate reader, cherry-pick, antagonist series (AID 743412); assay type: functional, cell-based
# [30] = toxicity toward HepG2 liver cells – cell-based, plate reader, cherry-pick, antagonist series, cytotoxicity control, dose response (AID 743416); assay type: functional
# [31] = blockers of bursicon-stimulated LGR2 cAMP reporter – cell-based, HEK293, CRE-luciferase reporter, cherry pick, set 2, dose response (AID 743343); assay type: functional;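 further: transfected cells were stimulated with diluted bursicon conditioned medium after compound addition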
# [32] = blockade of melanocortin 4 receptor signaling – cell-based, plate reader, cherry pick, counter-screen for LGR2 antagonist project, dose response (AID 743444); assay type: functional;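 further: transfected HEK 293 cells stimulated with alpha-MSH peptide; potency of inhibitors of the alpha-MSH evoked signal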
# [33] = viability loss in HEK293 cells – cell-based, plate reader, cherry-picked samples, cytotoxicity control, dose response (AID 743446); assay type: functional
# [34] = target: G2/mitotic-specific cyclin-B1 (Homo sapiens, UniProt P14635); assay: Counterscreen assay for inhibitors of Wee1 degradation: dose response cell-based assay to identify inhibitors of cyclin B degradation. [Related pubchem assays: 1410, 1321 ]; assay type: functional
# Chain of G2/mitotic-specific cyclin-B1 (P14635 whole entry): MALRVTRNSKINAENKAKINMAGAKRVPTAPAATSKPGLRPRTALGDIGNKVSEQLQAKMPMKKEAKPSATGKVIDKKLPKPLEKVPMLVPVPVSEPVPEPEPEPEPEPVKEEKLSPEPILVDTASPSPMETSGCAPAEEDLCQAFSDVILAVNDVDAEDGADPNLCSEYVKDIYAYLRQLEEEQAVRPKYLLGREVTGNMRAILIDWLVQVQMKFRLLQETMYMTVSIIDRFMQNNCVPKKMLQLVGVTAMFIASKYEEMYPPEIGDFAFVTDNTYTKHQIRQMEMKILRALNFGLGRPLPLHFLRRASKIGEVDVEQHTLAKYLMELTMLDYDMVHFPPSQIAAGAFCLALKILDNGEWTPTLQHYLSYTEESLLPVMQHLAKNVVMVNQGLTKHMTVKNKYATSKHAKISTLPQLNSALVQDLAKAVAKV
# [35] = target: Wee1-like protein kinase (Homo sapiens, UniProt P30291); assay: Dose Response Cell-based Assay for Inhibitors of Wee1 Degradation. [Related pubchem assays: 1410, 1321 ]; assay type: functional
# Chain of Wee1-like protein kinase (P30291 whole entry): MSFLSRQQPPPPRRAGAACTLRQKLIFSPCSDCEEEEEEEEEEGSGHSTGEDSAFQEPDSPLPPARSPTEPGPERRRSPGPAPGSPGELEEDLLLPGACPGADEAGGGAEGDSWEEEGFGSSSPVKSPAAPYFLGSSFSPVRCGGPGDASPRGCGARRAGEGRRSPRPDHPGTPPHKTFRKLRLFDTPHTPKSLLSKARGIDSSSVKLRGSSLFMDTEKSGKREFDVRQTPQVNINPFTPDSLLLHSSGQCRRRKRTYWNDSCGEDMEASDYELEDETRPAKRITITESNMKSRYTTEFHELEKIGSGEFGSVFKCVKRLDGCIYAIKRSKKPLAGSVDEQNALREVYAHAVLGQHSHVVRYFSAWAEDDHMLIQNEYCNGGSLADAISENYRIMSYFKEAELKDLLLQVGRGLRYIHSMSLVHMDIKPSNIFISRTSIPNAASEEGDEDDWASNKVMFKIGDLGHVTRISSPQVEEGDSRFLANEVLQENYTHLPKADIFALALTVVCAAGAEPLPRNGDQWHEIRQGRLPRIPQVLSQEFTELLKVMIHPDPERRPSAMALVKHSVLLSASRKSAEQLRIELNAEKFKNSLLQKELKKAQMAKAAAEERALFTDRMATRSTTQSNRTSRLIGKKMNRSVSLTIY
structure (smiles),measurement,setting,value
Cc1sc2cc3c(c(C(=O)c4ccccc4)[n+]2c1C)-c1cccc2cccc-3c12,EC50,[1],12.3 µM (not active)
same,EC50,[2],6.52 µM (active)
same,EC50,[3],> 350 µM (not active)
same,EC50,[4],11.5 µM (not active)
same,EC50,[5],31.9 µM (active)
same,EC50,[6],> 350 µM (not active)
same,EC50,[7],8.19 µM (active)
same,EC50,[8],23.5 µM (active)
same,EC50,[9],30.6 µM (active)
same,AC50,[10],1.91 µM (active)
same,AC50,[11],1.43 µM (active)
CC(C)(C)NC(=O)C(c1ccc(O)cc1)N(C(=O)Cn1nnc(-c2ccc(F)cc2)n1)c1ccccc1F (stereo not given),EC50,[12],> 35.4 µM (not active)
same,IC50,[13],16.8 µM (not active)
same,EC50,[14],> 35.4 µM (not active)
O=C(OCC(=O)c1c[nH]c2ccccc12)c1ccc([N+](=O)[O-])s1,IC50,[15],> 50 µM (not active)
same,EC50,[16],1.04 µM (active)
same,EC50,[17],> 60 µM (not active)
same,IC50,[18],> 50 µM (not active)
same,IC50,[19],1.62 µM (active)
same,AC50,[20],3.8 µM (active)
same,EC50,[21],36.4 µM (inactive)
Clc1cccc(CNCCCSc2ncccn2)c1,AC50,[22],6.84 µM (active)
Cc1c(Cl)c(C(=O)NNC(=S)Nc2ccccc2)nn1C,EC50,[23],50.5 µM (not active)
Clc1ccc(-n2ncc3c(N4CCCCCC4)ncnc32)cc1,EC50,[24],2.77 µM (active)
same,EC50,[25],> 8 µM (not active)
same,EC50,[26],> 13.2 µM (inactive)
same,EC50,[27],3.73 µM (active)
same,IC50,[28],4.43 µM (active)
same,AC50,[29],> 52 µM (inactive)
same,AC50,[30],> 52 µM (inactive)
same,AC50,[31],< 0.068 µM (active)
same,AC50,[32],< 0.068 µM (active)
same,AC50,[33],> 52 µM (inactive)
COc1cccc(/C=N/NC(=O)c2cc3c(OC)c(OC)ccc3[nH]2)c1OC,EC50,[34],> 49.7 µM (not active)
same,EC50,[35],> 49.7 µM (not active)
